# Data taken from patent publication US20220160009A1, “COMPOSITION COMPRISING TRANSFRUCTOSYLATED STEVIOL GLYCOSIDE” (CJ CHEILJEDANG CORPORATION, priority 2019, published 2022).
# Legend:
# [1] = Sensory preference evaluation by 15 panels; conditions: diluted to sweetness equivalent to 10% (w/w) or 10 brix of sugar, 9-point scale converted to 5-point scale
# Protocol: Prior to sensory evaluation, four samples of Example 1 (STV, STV-Fru, RA, RA-Fru) were diluted to the sweetness equivalent to 10% (w/w) or 10 brix of sugar, and the sensory evaluation was carried out on the four samples.
# The evaluation was proceeded as follow: 15 panels were given the four samples and required to evaluate the sweetness preference and the overall preference of the four samples on a 9-point scale (1=very much dislike, 5=neither dislike nor like, 9=very much like).
# Then, the statistical analysis was converted to a 5-point scale to verify the significant difference through paired T tests (reliability level of 95%).
# [2] = Sensory descriptive analysis by experts (n=15); conditions: diluted to equivalent sweetness based on 10 brix of sugar
# Protocol: The transfructosylated Stevioside (STV-Fru) and the transfructosylated Rebaudioside A (RA-Fru) prepared in Preparation Example 1 were diluted to the sweetness equivalent to Stevioside (STV) and Rebaudioside A (RA) (sweetness based on 10 brix of sugar), respectively, and then presented to experts (n=15) for descriptive analysis.
# [3] = listed as transfructosylated Rebaudioside A
# [4] = listed as transfructosylated Stevioside
Compound,Overall Preference [1],Sweetness Preference [1],Bitterness Intensity [2],Feeling of Weight [2],Off-smell/Off flavor Intensity [2],Overall Preference [2],Sweetness Intensity [2],Sweetness Persistence [2],Sweetness Preference [2],other results
"C=C1C[C@@]23CC[C@H]4[C@@](C)(CCC[C@@]4(C)C(=O)O[C@@H]4O[C@H](CO)[C@@H](O)[C@H](O)[C@H]4O)[C@@H]2CC[C@]1(O[C@@H]1O[C@H](CO)[C@@H](O)[C@H](O[C@@H]2O[C@H](CO)[C@@H](O)[C@H](O)[C@H]2O)[C@H]1O[C@@H]1O[C@H](CO)[C@@H](O)[C@H](O)[C@H]1O)C3 [RA, Rebaudioside A, reference compound]",2.72,2.51,3.4,2.9,3.3,2.6,3.2,2.9,2.5,
"C=C1C[C@@]23CC[C@H]4[C@@](C)(CCC[C@@]4(C)C(=O)O[C@@H]4O[C@H](CO[C@]5(CO)O[C@H](CO)[C@@H](O)[C@@H]5O)[C@@H](O)[C@H](O)[C@H]4O)[C@@H]2CC[C@]1(O[C@@H]1O[C@H](CO)[C@@H](O)[C@H](O[C@@H]2O[C@H](CO)[C@@H](O)[C@H](O)[C@H]2O)[C@H]1O[C@@H]1O[C@H](CO)[C@@H](O)[C@H](O)[C@H]1O)C3 [RA-Fru, 13-[(2-β-D-glucopyranosyl-3-O-β-D-glucopyranosyl-β-D-glucopyranosyl)oxy]ent-kaur-16-en-19-oic acid 6-O-β-D-fructofuranose-β-D-glucopyranosyl ester]",3.73,3.42,1.8,2.7,2.4,3.5,3.1,2.6,3.4,"Overall Preference [1, 3]: excellent; Sweetness Preference [1, 3]: excellent; Bitterness Intensity [2, 3]: significantly low; Off-smell/Off flavor Intensity [2, 3]: significantly low; Overall Preference [2, 3]: significantly high; Sweetness Preference [2, 3]: significantly high"
"C=C1C[C@@]23CC[C@H]4[C@@](C)(CCC[C@@]4(C)C(=O)O[C@@H]4O[C@H](CO)[C@@H](O)[C@H](O)[C@H]4O)[C@@H]2CC[C@]1(O[C@@H]1O[C@H](CO)[C@@H](O)[C@H](O)[C@H]1O[C@@H]1O[C@H](CO)[C@@H](O)[C@H](O)[C@H]1O)C3 [STV, Stevioside, reference compound]",2.02,2.13,3.9,2.8,3.5,2.1,2.8,2.9,2.3,
C=C1C[C@@]23CC[C@H]4[C@@](C)(CCC[C@@]4(C)C(=O)O[C@@H]4O[C@H](CO[C@]5(CO)O[C@H](CO)[C@@H](O)[C@@H]5O)[C@@H](O)[C@H](O)[C@H]4O)[C@@H]2CC[C@]1(O[C@@H]1O[C@H](CO)[C@@H](O)[C@H](O)[C@H]1O[C@@H]1O[C@H](CO)[C@@H](O)[C@H](O)[C@H]1O)C3 [STV-Fru],3.02,3.14,2.3,3.2,2.3,3.5,2.6,2.7,3.3,"Overall Preference [1, 4]: excellent; Sweetness Preference [1, 4]: excellent; Bitterness Intensity [2, 4]: significantly low; Off-smell/Off flavor Intensity [2, 4]: significantly low; Overall Preference [2, 4]: significantly high; Sweetness Preference [2, 4]: significantly high"
